Columns and labels:
[1] = system: HA, T98G and U251 cell lines; experiment: Apoptosis screen across the HA, T98G and U251 cell lines; format: cell-based, human; settings: oncogene inhibitor paired with miRNA mimic(s) targeting the same oncogene; cell lines listed
[2] = system: HA, T98G and U251 cell lines; experiment: Proliferation screen across the HA, T98G and U251 cell lines; settings: for Signficant Effect on Proliferation (cell lines): oncogene inhibitor paired with miRNA mimic(s) targeting the same oncogene, cell lines listed
U251 = experiment: Proliferation in GBM-derived cell line U251; format: cell-based; settings: Homo sapiens, U-251
GBM cell lines = settings: 1.85 nM romidepsin, Sawa et al., 2004; cited from earlier work
[3] = Iwamoto et al., 2011; cited from earlier work

Which “Significant Effect on Apoptosis (cell lines)” value [1] does the source give for `CNC(=O)c1cc(Oc2ccc(NC(=O)Nc3ccc(Cl)c(C(F)(F)F)c3)cc2)ccn1` [Sorafenib, 4-[4-[[4-chloro-3-(trifluoromethyl)phenyl]carbamoylamino]phenoxy]-N-methyl-pyridine-2-carboxamide] here?
The value was “HA, 198G”.

With `O=C(CCCCCCC(=O)Nc1ccccc1)NO` [Vorinostat, N-Hydroxy-N′-phenyloctanediamide] as the molecule, how does the “Signficant Effect on Proliferation (cell lines)” value [2] read?
Its value is “HA, U251”.

With `C/C=C1\NC(=O)[C@H]2CSSCC/C=C/[C@H](CC(=O)N[C@H](C(C)C)C(=O)N2)OC(=O)[C@H](C(C)C)NC1=O` [romidepsin, (1S,4S,7Z,10S,16E,21R)-7-ethylidene-4,21-diisopropyl-2-oxa-12,13-dithia-5,8,20,23-tetrazabicyclo[8.7.6]tricos-16-ene-3,6,9,19,22-pentone] as the molecule, how does the IC50 (U251) read?
The IC50 was 1.1 nM.

What about the “Effect in GBM cell lines” value (GBM cell lines) of the same molecule?
Its value is “anti-proliferative and pro-apoptotic”.

What about the half-life in patients [3] of the same molecule?
Its half-life in patients is “short half-life”.

And the “Rank of single-agent effects on proliferation and apoptosis” value [2]?
Its value is “strongest effects on proliferation and apoptosis in every cell line”.

And the “Signficant Effect on Proliferation (cell lines)” value [2]?
Its value is “HA, U251”.
